In patent US20220202610A1, “CONTACT LENS WITH SUSTAINED RELEASE PROPERTY” (priority 2020, published 2022):

How the values were obtained:
[1] = Release of lens drug (dexamethasone): drug loading, moist heat sterilization and release in saline, HPLC; type: physicochemical; conditions: 121° C., 30 minutes
Protocol: (§1) Sampling time point: 0, 2, 4 and 8 hours (N=3)
(1) Single drug-loaded lens was placed in a 5 mL ampoule. 1 mL of saline was added as a release medium. The lens was placed in a shake oven (MS Hybridization Shaking Oven, MO-AOR, Major Science), and a drug release test was conducted under the operating parameters of 35° C. and 100 rpm. The drug release solution was replaced with fresh saline every 2 hours.
(2) The drug content in the lens preservation solution and the drug content in the lens were analyzed by HPLC with RP-C18 column. The extraction method of drug (Dexamethasone, DEX) in the lens: one lens was taken out of the preservation solution. Lens surface moisture was fully absorbed with a lens cleaning paper. The one lens was immersed in 1 mL of methanol to stand for 8 hours to extract the drug. Then the drug content was analyzed by HPLC.

[2] = Release of lens drug (menthol): drug loading, moist heat sterilization and release in saline, HPLC; type: physicochemical; conditions: 121° C., 30 minutes
Protocol: as §1
First group: P-2.5HPC7/P6k-38CL
(1) Single drug-loaded lens was placed in a 5 mL ampoule. 1 mL of saline was added as a release medium. The lens was placed in a shake oven (MS Hybridization Shaking Oven, MO-AOR, Major Science), and a drug release test was conducted under the operating parameters of 35° C. and 100 rpm. No release solution was replaced throughout. Sampling: the lens was taken out at each time point. The drug was extracted with ethanol (98 wt %). The drug content was analyzed by HPLC with RP-C18 column. After the lens was taken out, no drug release test was performed.
(2) The extraction method of menthol in the lens: one lens was taken out of the ampoule used for the release test. Lens surface moisture was fully absorbed with a lens cleaning paper. The one lens was immersed in 1 mL of ethanol (98 wt %) to stand for 8 hours to extract the drug. Then the drug content was analyzed by HPLC.

Row | Compound | loss caused by the moist heat sterilization [1] | menthol in the lens preservation solution after the moist heat sterilization [2]
1 | Cn1c(=O)c2c(ncn2C)n(C)c1=O [caffeine] | hardly causes the loss | –
2 | CC1CCC(C(C)C)C(O)C1 (centres unmarked) [menthol] | – | most of the menthol in the lens preservation solution escapes
